Data as given in US20220395575A1, “COMBINATION THERAPY WITH PROTEIN KINASE B ACTIVATION INHIBITOR TO TREAT CANCER” (H. LEE MOFFITT CANCER CENTER AND RESEARCH INSTITUTE, INC., priority 2019, published 2022).

Legend:
Assay type in all cases: cell-based
Details in all cases: in combination with Akt activation inhibitor TCN-P
[1] = test system: HL60 human leukemic cells; assay: viability of HL60 human leukemic cells, combination with TCN-P
[2] = test system: THP1 human leukemic cells; assay: viability of THP1 human leukemic cells, combination with TCN-P
[3] = test system: U937 human leukemic cells; assay: viability of U937 human leukemic cells, combination with TCN-P

Measured: synergy with TCN-P to inhibit viability

C#Cc1cccc(Nc2ncnc3cc(OC)c(OCCCCCCC(=O)NO)cc23)c1 [CUDC-101]
synergizes with TCN-P: all assays above

Cc1cnc(NC(=O)Nc2cc(Br)c(C)cc2OC[C@@H]2CNCCO2)cn1 [LY2603618, rabusertib]
synergizes with TCN-P: all assays above
